{"source": "patent US20160009751A1", "about": "“C-19 HYDROXY PREGNENES” (LEO Pharma A/S, priority 2014, published 2016)", "key": {"[1]": {"target": "T1, mineralocorticoid receptor (MR) (Homo sapiens, UniProt P08235)", "T1 construct": "UAS-driven beta-lactamase reporter", "T1 sequence (P08235 726-984 limits assumed)": "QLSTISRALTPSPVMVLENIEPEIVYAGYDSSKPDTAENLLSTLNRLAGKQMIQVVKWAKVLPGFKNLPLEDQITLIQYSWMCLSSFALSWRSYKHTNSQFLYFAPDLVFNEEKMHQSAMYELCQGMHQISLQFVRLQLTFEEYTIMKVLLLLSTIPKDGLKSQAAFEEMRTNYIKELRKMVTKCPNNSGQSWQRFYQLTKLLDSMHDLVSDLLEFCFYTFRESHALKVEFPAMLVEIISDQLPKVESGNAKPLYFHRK", "experiment": "Mineralocorticoid receptor (MR) antagonism assay (GeneBLAzer MR DA, beta-lactamase reporter)", "type": "cell-based", "conditions": "0.14 nM-1 uM test compound, 10 nM aldosterone; relative IC50; read-out: Mineral corticoid receptor (MR) antagonism; Rel IC50", "experimental": "Agonistic and antagonistic interaction with the mineralocorticoid receptor was determined using the GeneBLAzer® MR DA Assay Kit (Life Technologies, catalogue number K1409) in a 96-well format according to the manufacturer's instructions. For determination of MR agonistic effect, cells were incubated with 0.14 nM-1 uM of test compound; the MR agonist aldosterone was included as a positive control in the same concentration range. After 16 h incubation, assay substrate (LiveBLAzer™-FRET B/G) was added to all wells and cells were incubated for 2 h followed by fluorometric detection (409/447 nm excitation and emission wavelength, respectively) of substrate conversion by beta-lactamase.\nAfter 0.5 h, 10 nM of the MR agonist aldosterone was added to all wells and cells were incubated for another 15.5 h. After that, assay substrate (LiveBLAzer™-FRET B/G) was added to all wells and cells were incubated for 2 h followed by fluorometric detection (409/447 nm excitation and emission wavelength, respectively) substrate conversion by beta lactamase."}, "[2]": {"target": "T2, recombinant glucocorticoid receptor (GR) (Homo sapiens, UniProt P04150)", "T2 sequence (P04150 1-777)": "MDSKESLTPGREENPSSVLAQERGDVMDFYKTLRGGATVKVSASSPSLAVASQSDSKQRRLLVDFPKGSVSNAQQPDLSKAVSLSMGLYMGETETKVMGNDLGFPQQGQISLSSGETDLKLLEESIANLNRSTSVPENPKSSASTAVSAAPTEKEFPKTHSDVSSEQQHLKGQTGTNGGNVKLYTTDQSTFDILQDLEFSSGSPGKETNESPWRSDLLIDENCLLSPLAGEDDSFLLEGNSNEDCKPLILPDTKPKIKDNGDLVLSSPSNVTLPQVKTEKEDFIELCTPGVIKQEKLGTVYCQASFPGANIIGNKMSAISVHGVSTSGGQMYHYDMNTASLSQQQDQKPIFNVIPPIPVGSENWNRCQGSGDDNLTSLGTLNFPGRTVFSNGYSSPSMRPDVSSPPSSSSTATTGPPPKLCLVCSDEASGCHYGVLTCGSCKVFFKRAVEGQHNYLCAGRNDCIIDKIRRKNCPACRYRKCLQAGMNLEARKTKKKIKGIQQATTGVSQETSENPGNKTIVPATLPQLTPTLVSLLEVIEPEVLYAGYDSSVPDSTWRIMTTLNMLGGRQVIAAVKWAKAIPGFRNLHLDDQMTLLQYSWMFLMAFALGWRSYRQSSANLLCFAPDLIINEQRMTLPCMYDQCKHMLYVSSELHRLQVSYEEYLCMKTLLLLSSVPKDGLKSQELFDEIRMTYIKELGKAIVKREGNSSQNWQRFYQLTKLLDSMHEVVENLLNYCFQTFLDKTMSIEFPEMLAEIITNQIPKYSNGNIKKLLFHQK", "experiment": "Glucocorticoid receptor (GR) competitive binding assay (PolarScreen, fluorescence polarization)", "conditions": "competition with Fluormone GS1, 2 hours at room temperature; relative IC50; read-out: GR binding; Rel IC50", "experimental": "Glucocorticoid receptor binding was determined by competitive receptor binding assay using the PolarScreen™ Glucocorticoid Receptor Competitor Assay Kit, Green (Life Technologies, catalogue number A15897) in a 384-well format according to the manufacturer's instructions. Briefly, serial dilutions of test and reference compounds were prepared in 384-well plates. Subsequently, the steroidal competitor Fluormone™ GS1 and recombinant glucocorticoid receptor (GR) were added to all wells and the plate was incubated for 2 hours at room temperature and protected from light. Finally, polarization values in each well were determined by reading the plate in an EnVision (PerkinElmer) device."}, "[3]": {"test_system": "Interleukin-12B (IL-12B) release from primary human monocytes (PBMC)", "experiment": "Interleukin-12B (IL-12B) release from LPS-stimulated primary human monocytes (PBMC)", "type": "cell-based", "conditions": "100 ng/ml LPS for 18 h, ELISA, relative IC50, read-out: Interleukin-12B (IL-12B), Rel IC50", "text": "The assay was adopted from a previously reported method (Schäcke et al, Br 3 Pharmacol (2009); 158(4): 1088-103) and is based on PBMC isolated from human blood. Stimulation of these cells with lipopolysaccharide (LPS) induces—among many other processes—the synthesis and secretion of the cytokine IL-12B. Both steroidal (glucocorticoids) and non-steroidal glucocorticoid receptor agonists act anti-inflammatory—e.g. by preventing DNA-binding of inflammatory transcription factors like AP-1 or NFkB—resulting in decreased synthesis/secretion of IL12B.\nFor compound testing, frozen stocks of PBMC were thawed, seeded in 96-well plates (1.2E5 cells/well) and then incubated in RPMI-1640 culture medium with 100 ng/ml LPS for 18 h with or without test compounds (pre-incubation with reference/test compounds for 1 h before addition of LPS). Then, IL-12B concentration in the cell culture supernatants was detected by hIL-12B-specific ELISA (Quantikine® human IL-12 p40 Immunoassay, R&D Systems Cat #SP400)."}}, "data": [{"smiles": "CCCCC(=O)O[C@]1(C(=O)CO)[C@@H](C)C[C@H]2[C@@H]3CCC4=CC(=O)C=C[C@]4(C)[C@@]3(F)[C@@H](O)C[C@@]21C", "note": "[Bethamethasone valerate]", "values": [{"measurement": "IC50", "setting": "[1]", "value": 137, "unit": "nM"}, {"measurement": "IC50", "setting": "[2]", "value": 7, "unit": "nM"}, {"measurement": "IC50", "setting": "[3]", "value": "< 1", "unit": "nM"}]}, {"smiles": "CCC(=O)O[C@]1(C(=O)CCl)[C@@H](C)C[C@H]2[C@@H]3CCC4=CC(=O)C=C[C@]4(C)[C@@]3(F)[C@@H](O)C[C@@]21C", "note": "[Clobetasol propionate]", "values": [{"measurement": "IC50", "setting": "[1]", "value": 171, "unit": "nM"}, {"measurement": "IC50", "setting": "[2]", "value": 6, "unit": "nM"}, {"measurement": "IC50", "setting": "[3]", "value": "< 1", "unit": "nM"}]}, {"smiles": "CCC(=O)O[C@]1(C(=O)CCl)CC[C@H]2[C@@H]3CCC4=CC(=O)CC[C@]4(CO)[C@H]3[C@@H](O)C[C@@]21C", "note": "[Compound 1, (8S,9S,10S,11S,13S,14S,17R)-17-(2-chloroacetyl)-11-hydroxy-10-(hydroxymethyl-13-methyl-3-oxo-2,3,6,7,8,9,10,11,12,13,14,15,16,17-tetradecahydro-1H-cyclopenta[a]phenanthren-17-yl propionate]", "values": [{"measurement": "IC50", "setting": "[1]", "value": "> 1000", "unit": "nM"}, {"measurement": "IC50", "setting": "[2]", "value": 25, "unit": "nM"}, {"measurement": "IC50", "setting": "[3]", "value": 36, "unit": "nM"}]}, {"smiles": "CCC(=O)O[C@]1(C(=O)CCl)CC[C@H]2[C@@H]3C[C@@H](F)C4=CC(=O)CC[C@]4(CO)[C@H]3[C@@H](O)C[C@@]21C", "note": "[Compound 2, (6R,8S,9S,10S,11S,13S,14S,17R)-17-(2-chloroacetyl)-6-fluoro-11-hydroxy-10-(hydroxymethyl)-13-methyl-3-oxo-2,3,6,7,8,9,10,11,12,13,14,15,16,17-tetradecahydro-1H-cyclopenta[a]phenanthren-17-yl propionate]", "values": [{"measurement": "IC50", "setting": "[2]", "value": 40, "unit": "nM"}, {"measurement": "IC50", "setting": "[3]", "value": 31, "unit": "nM"}]}]}
